Test results reported in US20030109051A1, “Spin trap for use in biological systems” (RANDOX LABORATORIES LTD, priority 2001, published 2003).
Entries after “also recorded” stand apart in the source; their conditions may differ.

What was measured:
[1] = Reaction of nitric oxide with spin traps, ESR time course (chemical system); settings: for trapping of nitric oxide (spin trap for nitric oxide): chemical system, spin trap in toluene, NO-saturated water
Description: ESR spectra were obtained using a prototype spectrometer (Jeol (U.K.) Ltd., Welwyn Garden City, England) equipped with a TED11 cylindrical cavity. Samples were analysed at room temperature in a WG-LC-11 quartz flat cell (Wilmad-Glass, Buena, N.J.). In general, the instrument parameters were: microwave frequency 9.2 GHz, microwave power 4 mW, centre field (CF) 336.7 mT, sweep width (SW)±5 mT, number of data points 4095, modulation frequency 100 kHz. For the spin traps reacted with nitric oxide: sweep time (ST) 150 s, time constraint (TC) 0.3 s, modulation width (MW) 0.2 mT. A JEOL ES-DM1 digital manganese oxide marker (0.03 mm of the glass tube inserted per unit on the dial setting) with a dial setting of 500 was used to ensure reproducibility between samples and to identify the position of the signals in the microwave field.
Samples of DBBNB, DMNB and TMNB were weighed into vacutainers, which were then evacuated Toluene and Tris-HCl buffer, 0.01 M, pH 7.4, were deoxygenated by bubbling with nitrogen gas for 15 min. Deoxygenated toluene was added to DBBNB, DMNB and TMNB, using a gas-tight syringe, to give a final concentration of 0.15 M in the reaction mixture.
The apparatus shown in FIG. 5 was flushed with nitrogen for 15 min. The vacutainer containing deionised water (4 ml) was then connected to the system and flushed with nitrogen for a further 15 min, to remove any oxygen present in the system, and therefore to prevent the formation of nitrogen dioxide. The NO gas was bubbled through the deionised water via the system for 45 min. The small amount of nitrogen dioxide present in the pressurised NO container was removed by bubbling through two bottles of 5M NaOH. The gas was then bubbled through a scrubbing bottle containing deionised water to remove any alkaline aerosol contamination. Any excess of NO after the deionised water step was bubbled through a scrubbing bottle containing 1M potassium permanganate/1M NaOH to prevent excess NO escaping from the fumehood. The concentration of NO in the resulting NO-saturated water was taken to be 2.0 mM. […]

[2] = Spin trapping of nitric oxide in whole blood using DMNB (ESR)
Description: This may be due to the possibility that any NO present or produced by live leucocytes in whole blood may react with thiol groups to form S-nitrosothiols and consequently be not trapped by DMNB. […] Lipopolysaccharide (LPS), which activates cell function, was also used in order to stimulate the cells to increase production of NO. As NEM may be toxic to cells, it was added i) at the same time as LPS and ii) 3.5 hours after the addition of LPS.
Peripheral blood was taken from a healthy volunteer into a vacutainer containing EDTA. After mixing, 1 ml of the blood was dispensed into each reaction vacutainer by a syringe, as quickly as possible (under 5 min).
DMNB (2) 0.5406 g was dissolved in 16 ml of deoxygenated toluene (by bubbling through nitrogen gas) to make a 0.25 M solution. 700 μl of the solution was added to each reaction mixture to make a final concentration of 0.1 M. A NO solution was made by bubbling nitric oxide gas through deoxygenated water for 45 min. The resulting NO solution (2 mM) was diluted with deoxygenated water to give 10, 35 and 50 nM solutions. An NEM solution (0. 3 M) was prepared by dissolving 0.0751 g of NEM in deoxygenated water. NEM solution (0.3 M), in amounts of 20, 40 and 80 μl, was added to the reaction mixtures to give a concentration, in 1 ml of blood, of 6, 12 and 24 mM. LPS (1 mg) was dissolved in 1 ml of PBS, 0.01 M, pH 7.4. The working stock solution is 100 μg/ml, diluted with the same buffer. The working stock solution of 10 μl was added to the reaction mixture to give a 1 μg/ml of blood. All transfer of reagents was done by gastight syringe through rubber stopper. The difference in volume due to the addition of NEM and LPS was compensated for by addition of deoxygenated water.
NO solution, blood without NEM nor LPS and PBS (0.01 M, pH 7.4) as controls were added to DMNB in toluene directly. NEM without LPS was added to blood immediately prior to addition of DMNB in toluene. When LPS was added to blood alone, the mixture of blood and LPS was incubated at room temperature for 3.5 hour before addition to DMNB in toluene. When both NEM and LPS were added to blood, NEM was either added to the blood together with LPS or added 3.5 hour later (Gust before addition of DMNB). When the DMNB in toluene was added, the reaction mixtures were incubated at room temperature on a roller for 2 hour to ensure effective extraction.
The reaction mixture was then analysed by ESR spectrometry (RE1X, Jeol). Individual results are shown in FIG. 6, and have been reassessed, for comparison purposes, in FIG. 7.

For `O=Nc1c(Br)cc(S(=O)(=O)[O-])cc1Br.[Na+]` [DBNBS, 3,5-dibromo-4-nitrosobenzene sulphonate, sodium salt, reference compound], the “reaction time of DBNBS with NO” value ([1]; comparison value, conditions and source not given) was “approximately 50 hr”.
For `Cc1cc(C)c(N=O)c(C)c1` [TMNB, 2,4,6-Trimethylnitrosobenzene], the “trapping of nitric oxide (spin trap for nitric oxide)” value [1] was “shown to trap nitric oxide”.
In the case of `Cc1cccc(C)c1N=O` [DMNB, 2,6-Dimethylnitrosobenzene], the “trapping of nitric oxide (spin trap for nitric oxide)” value [1] is reported as “shown to trap nitric oxide”, the “DMNB-NO adduct ESR signal intensity” value ([2]; LPS alone (1 μg/ml blood, 3.5 hour) before DMNB) is reported as “did not Increase the signal intensity” and the “DMNB-NO adduct ESR signal intensity” value ([2]; NEM (6, 12, 24 mM) added to blood before DMNB, increase proportional to NEM concentration) is reported as “increase in signal intensity”. The “DMNB-NO adduct ESR signal” value ([2]; both LPS and NEM added to blood) was “significant increase” and the “DMNB-NO adduct ESR signal” value ([2]; peripheral blood incubated with DMNB in toluene, no NEM, no LPS) was “did not produce a detectable DMNB-NO adduct signal; also recorded: very little signal was detected”.
